Earlier results, collected in patent publication US12472190B2, “Pharmaceutical compositions” (CIPLA Limited, priority 2010, dated 2025).

Details: relative to S (−) isomer of budesonide; no test described

## CCC[C@@H]1O[C@@H]2C[C@H]3[C@@H]4CCC5=CC(=O)C=C[C@]5(C)[C@H]4[C@@H](O)C[C@]3(C)[C@]2(C(=O)CO)O1 [R (+) budesonide]
  anti-inflammatory properties as compared to S (−) isomer: nearly three times as strong
